What was measured:
[1] = molecular target: T1, GrA (Homo sapiens, UniProt P12544); experiment: Second-order inhibition rate constant kobs/I toward GrA, pseudo-first-order conditions; assay type: biochemical; settings: GrA; versus 2000 M^–1 s^–1
T1 construct: made in house; host or cells: Pichia pastoris
T1 sequence (P12544 29-262): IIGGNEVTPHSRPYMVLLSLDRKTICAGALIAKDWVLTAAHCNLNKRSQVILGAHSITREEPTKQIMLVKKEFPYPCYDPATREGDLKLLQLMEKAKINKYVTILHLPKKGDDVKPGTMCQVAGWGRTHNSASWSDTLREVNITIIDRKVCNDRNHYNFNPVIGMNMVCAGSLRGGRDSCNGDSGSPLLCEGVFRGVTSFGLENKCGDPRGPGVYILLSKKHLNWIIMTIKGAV
Experimental: We calculated the apparent second-order rate constants for inhibition (kobs(app)/I) of GrA-mediated SK15I under pseudo first-order conditions by serially diluting the new inhibitor in the range of 714–333 nM with a constant optimal substrate (SK15) concentration of 10 μM (Figure 3B).
The second-order inhibition rate constant (kobs/I expressed in M^–1 s^–1) toward GrA was measured under pseudo-first-order kinetic conditions. Ten microliters of substrate (SK15) was mixed with varying inhibitor or probe concentrations and incubated at 37 °C for 15 min. […] Experiments are presented as the average of at least three experiments with standard deviation.

[2] = tested on: hNE; experiment: Residual activity assay, hNE; assay type: biochemical, human; settings: 3.3 nM hNE preincubated with 10 μM compound 30 min 37 °C; substrate Ac-Arg(NO)2-Glu(Bzl)-Oic-Abu-ACC
Experimental: (§1) We wondered whether the selectivity of our SK15-based molecules for GrA would be maintained by substrate structure modifications, such as replacing ACC with a diphenyl phosphonate warhead and changing the N-terminus from acetyl to the cyanine derivative Cy5.
(§2) As a control, enzymes without inhibitor and probe were tested.

[3] = tested on: GrA in NK92 cells; experiment: SK15.5 cell membrane permeability assay / GrA labeling in live NK92 cells; assay type: cell-based, human; settings: SK15I 10 μM, 1 h, prior to 1 μM SK15.5
Experimental: (B) SK15.5 probe cell permeability. […] The results represent two biological replicates.
We noticed a strongly labeled species within 30 min, and the intensity increased until 2 h (Figure 5B). […] As an additional control, immunolabeling was performed and confirmed the selective binding of the probe with GrA (for full size blots, please see Figure S3).
As a control, GrA was preinhibited with 10 μM (final concentration) SK15I and incubated for 1 h at 37 °C, and untreated samples were simultaneously incubated. At the end of every time point, the cells were centrifuged, washed twice with DPBS, centrifuged and treated with 100 μL of 1× SDS/DTT solution. Afterward, the samples were sonicated (10 kHz for 10 s) and loaded onto a 4–12% Bis-Tris 10-well gel (Invitrogen). SDS-PAGE was run at 165 V for 37 min, and membrane transfer (10 V, 60 min) was subsequently performed.

[4] = molecular target: T2, GrB (Homo sapiens, UniProt P10144); experiment: Residual activity assay, GrB; assay type: biochemical; settings: 18 nM GrB preincubated with 10 μM compound 30 min 37 °C; 200 μM GrBref
T2 construct: made in house; host or cells: Pichia pastoris
T2 sequence (P10144 21-247): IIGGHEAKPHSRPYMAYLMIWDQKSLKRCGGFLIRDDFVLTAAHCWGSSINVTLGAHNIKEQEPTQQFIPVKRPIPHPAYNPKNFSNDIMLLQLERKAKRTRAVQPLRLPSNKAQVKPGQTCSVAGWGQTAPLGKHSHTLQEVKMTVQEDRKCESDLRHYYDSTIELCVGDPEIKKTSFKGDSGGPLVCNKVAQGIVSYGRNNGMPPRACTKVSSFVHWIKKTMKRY
Experimental: as §1, §2

[5] = tested on: PR3; experiment: Residual activity assay, PR3; assay type: biochemical; settings: 3.4 nM PR3 preincubated with 10 μM compound 30 min 37 °C; substrate Ac-Glu(O-Bzl)-Lys(Ac)-Hyp(Bzl)-Nva-ACC
Experimental: as §1, §2

[6] = tested on: MDA-MB-231 cells; settings: MDA-MB-231, 24 h, MTS at 490 nm, 1 nM to 10 μM tested, duplicate
[7] = tested on: GrA; experiment: Residual activity assay, GrA preinhibited with SK15I or SK15.5; assay type: biochemical, human; settings: substrate SK15; preincubation 30 min, 37 °C
Experimental: as §1, §2

[8] = molecular target: T1, GrA; experiment: In-gel detection of recombinant GrA with SK15.5 (SDS-PAGE); assay type: binding; settings: SK15I 1 μM, 1 h, 37 °C, then SK15.5 500 nM 1 h
Experimental: Next, we tested the utility of our fluorescent probe for the in-gel detection of active GrA in test samples. […] We then ran a simple SDS-PAGE assay to detect labeled GrA (Figure 4A). […] In our hands, the probe bound to the enzyme, as indicated by the fluorescent 35 kDa species, after the minimal incubation time (5 min). […] The optimal concentration was 500 nM (strong signal) (Figure 4B).
(A) Incubation time of SK15.5 with enzyme optimization. […] (D) GrA in-gel detection in NK92 cell lysates. […] The results are representative of at least 2 replicates.
In contrast to the closely related GrB, GrH, GrM, and GrK, GrA is a homodimer formed by stable disulfide-linked subunits.[26] Since the subunits are oriented in opposite directions, the surrounding area may form an exosite.[26]
In the incubation time optimization assay, the enzyme and probe concentrations were constant (250 nM), and the incubation time ranged from 0 to 120 min. […] Enzyme was incubated with probe in a volume of 80 μL, followed by the reduction with 40 μL of 3 × SDS/DTT for 5 min at 95 °C. Samples were centrifuged (3 min, 4500g), and 40 μL of each sample was run on 4–12% Bis-Tris 10-well gels (Invitrogen). The first well was loaded with 2 μL of the protein marker PageRuler Plus Prestained Protein Ladder (Thermo Scientific). Electrophoresis was conducted at 165 V for 37 min at room temperature. […] Total sample volume was 80 μL, to which 40 μL of 3× SDS/DTT was added and boiled for 5 min at 95 °C. Samples were centrifuged (3 min, 4500g), and 40 μL of each sample was run on 4–12% Bis-Tris 10-well gels (Invitrogen). Each form of the enzyme without SK15.5 and probe itself were run as controls. The first well was loaded with 2 μL of protein marker PageRuler Plus Prestained Protein Ladder (Thermo Scientific). Electrophoresis and membrane transfer were conducted in the same manner as above.

[9] = molecular target: T3, GrK (Homo sapiens, UniProt P49863); experiment: Residual activity assay, GrK; assay type: biochemical; settings: 488 nM GrK preincubated with 10 μM compound 30 min 37 °C; 200 μM GrKref
T3 construct: made in house; host or cells: Pichia pastoris
T3 sequence (P49863 27-264): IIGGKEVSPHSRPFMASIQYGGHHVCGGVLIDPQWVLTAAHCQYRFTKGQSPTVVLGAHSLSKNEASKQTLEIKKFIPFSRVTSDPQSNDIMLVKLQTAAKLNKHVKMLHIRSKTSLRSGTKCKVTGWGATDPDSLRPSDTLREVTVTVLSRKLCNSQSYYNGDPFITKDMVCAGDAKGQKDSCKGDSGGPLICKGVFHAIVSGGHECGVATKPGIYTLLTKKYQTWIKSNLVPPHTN
Experimental: as §1, §2

[10] = tested on: GrM; experiment: Residual activity assay, GrM; assay type: biochemical, human; settings: 74 nM GrM preincubated with 10 μM compound 30 min 37 °C; substrate Ac-Lys-Val-Pro-Leu-ACC
Experimental: as §1, §2

Substance: MeOSuc-Tic-Gly-Oic-Arg^P(OPh)2 [SK15I]
- kobs/I relative to the reference inhibitor [1]: approximately 85 fold
- inhibition of hNE [2]: less than 20%
- effect of inhibitor pretreatment on SK15.5 probe binding in live cells (in words) [3]: substantial decrease in probe binding
- inhibition of GrB [4]: less than 20%
- inhibition of PR3 [5]: less than 20%
- concentration above which cytotoxic [6]: > 10 µM
- residual GrA activity after preinhibition (in words) [7]: completely blocked
- effect of preinhibition with inhibitor on SK15.5 probe binding to GrA (in words) [8]: prevented probe binding
- inhibition of GrK [9]: less than 20%
- inhibition of GrM [10]: less than 20%

Source: paper PMC7590976, “Detection of Active Granzyme A in NK92 Cells with Fluorescent Activity-Based Probe” (Journal of Medicinal Chemistry, 2020)
